The target of data set [1] is T1, hERG channel (Homo sapiens, UniProt Q12809).
T1 construct: host or cells: HEK 293
The data set can be described thus: hERG potassium channel current inhibition, whole-cell patch clamp. It is filed as cell-based. The note with it: hERG-expressing HEK 293 cells, whole-cell recording, 25 °C. Here is the method: Inhibition of human ether-a-go-go-related gene (hERG) potassium channel current was carried out following a standard protocol by Pharmaron, Inc. hERG stably expressed HEK 293 cell line (Cat# K1236) was purchased from Invitrogen (Thermo Fisher Scientific, USA). The cells are cultured in 90% DMEM, 10% dialyzed FBS, 0.1 mM NEAA, 25 mM HEPES, 100 U/mL Penicillin-Streptomycin, 5 µg/mL Blasticidin, and 400 µg/mL Geneticin. Cells are split using TrypLE Express about three times a week and maintained between ~40% and ~80% confluence. Before the assay, the cells were plated onto the coverslips at 5 × 10^5 cells/6 cm cell culture dish and induced with doxycycline at 1 µg/mL for 48 h. Test compound was initially prepared in DMSO with final concentration of 30 mM as stock solution. Then stock solution of test compound was serial-diluted by ratio of 1:3 with DMSO to prepare additional four intermedial solutions including 10, 3.33, 1.11, 0.37 mM, respectively. […] 5 doses were challenged to the patched cells for IC50 determination.
The voltage-gated hERG potassium channel current was recorded at room temperature (25 °C) from randomly selected transfected cells using whole-cell recording technique with a Multiclamp 700B amplifier (Molecular Devices, US) and an EPC10 microamplifier (HEKA, USA). Extracellular solution (in mM): 132 NaCl, 4 KCl, 3 CaCl2, 0.5 MgCl2, 11.1 glucose, and 10 HEPES (pH adjusted to 7.35 with NaOH). Intracellular solution (in mM): 70 KF, 60 KCl, 15 NaCl, 5 EGTA, and 5 HEPES (pH adjusted to 7.35 with KOH).
The holding potential was set to −90 mV for 1 s; recording current at 50 kHz and filter at 10 kHz. Leaking current was tested at −80 mV for 500 ms. […] The current was recorded for 120 s to assess the current stability. […] After allowing the current to stabilize for 3 min, compound was applied. hERG current in the presence of test compound were recorded for approximately 5 min to reach steady state and then five sweeps were captured. […] Percent current inhibition was calculated using the following equation. […]
For orientation: hERG is a cardiac potassium channel; its block is linked to QT prolongation.

Data set [2] in a line: compound plasma concentration in Balb/c mice by LC-MS. Format: in vivo. The conditions noted are these: 50 mg/kg; for plasma level at the end of the experiment with infected mice: Balb/c mice, 6 h after last dose, alone or with rifampicin. The protocol:
Animal experimentation was conducted under approval by the ILSL ethical committee (CEUA ILSL 02/19). Balb/c female mice with 8-week-old were inoculated with 5 × 10^3 live M. leprae bacilli, strain Thai-53, in both hind footpads, as previously described for the Shepard’s model ([25]). Eight groups were tested in the experiment: (i) M. leprae control group (n = 5) inoculated with M. leprae and no additional treatment; (ii) vehicle control group (n = 4) inoculated with M. leprae and treatment with vehicle of the drugs; (iii) regular rifampicin treatment, 10 mg/Kg dose; (iv) sub-inhibitory rifampicin, 1 mg/kg dose (n = 5); (v) compound 2 treatment (n = 4), 50 mg/kg dose; (vi) compound 2 with sub-inhibitory rifampicin (n = 5), 50 mg/kg dose of compound 2 and 1 mg/kg dose of rifampicin; (vii) compound 5 treatment (n = 5), 50 mg/kg dose; and (viii) compound 5 with sub-inhibitory rifampicin (n = 5), 50 mg/kg dose of compound 5 and 1 mg/kg dose of rifampicin. One month after inoculation, mice from the control group were euthanized and the hind footpad was collected to assess the establishment of the infection by bacillary enumeration. At that time point, vehicle or drug treatment was started for the remaining groups. All compounds were administrated by gavage, rifampicin was administered weekly, and the compounds were administered daily (excluding weekends) for 1 month (20 doses). Mice were euthanized 6 h after administration of the last dose, and blood was collected in heparin-coated tubes by cardiac puncture for blood enzyme evaluation and compound 5 measurement by LC/MS in the plasma. The infected hind footpads from each group of mice were excised, homogenized and bacilli enumerated in a 100 µL aliquot as previously described ([26]). […]
Uninfected Balb/c female mice (n = 36), approximately 8 weeks old and 20 g, were divided into three groups. […] Concentrations of compound 5 in plasma were determined by LC/MS.
Compound 5 quantification in the plasma was performed on lipid extracts from plasma samples. […]

The subject of data set [3] is HepG2 cells. The note with it: cited from earlier work.

We go through three compounds from PMC12210912, “Pharmacologic properties and inhibitory activity of 6-azasteroids against Mycobacterium leprae in vivo and in vitro” (Microbiology Spectrum, 2025).

T1 sequence (Q12809 whole entry): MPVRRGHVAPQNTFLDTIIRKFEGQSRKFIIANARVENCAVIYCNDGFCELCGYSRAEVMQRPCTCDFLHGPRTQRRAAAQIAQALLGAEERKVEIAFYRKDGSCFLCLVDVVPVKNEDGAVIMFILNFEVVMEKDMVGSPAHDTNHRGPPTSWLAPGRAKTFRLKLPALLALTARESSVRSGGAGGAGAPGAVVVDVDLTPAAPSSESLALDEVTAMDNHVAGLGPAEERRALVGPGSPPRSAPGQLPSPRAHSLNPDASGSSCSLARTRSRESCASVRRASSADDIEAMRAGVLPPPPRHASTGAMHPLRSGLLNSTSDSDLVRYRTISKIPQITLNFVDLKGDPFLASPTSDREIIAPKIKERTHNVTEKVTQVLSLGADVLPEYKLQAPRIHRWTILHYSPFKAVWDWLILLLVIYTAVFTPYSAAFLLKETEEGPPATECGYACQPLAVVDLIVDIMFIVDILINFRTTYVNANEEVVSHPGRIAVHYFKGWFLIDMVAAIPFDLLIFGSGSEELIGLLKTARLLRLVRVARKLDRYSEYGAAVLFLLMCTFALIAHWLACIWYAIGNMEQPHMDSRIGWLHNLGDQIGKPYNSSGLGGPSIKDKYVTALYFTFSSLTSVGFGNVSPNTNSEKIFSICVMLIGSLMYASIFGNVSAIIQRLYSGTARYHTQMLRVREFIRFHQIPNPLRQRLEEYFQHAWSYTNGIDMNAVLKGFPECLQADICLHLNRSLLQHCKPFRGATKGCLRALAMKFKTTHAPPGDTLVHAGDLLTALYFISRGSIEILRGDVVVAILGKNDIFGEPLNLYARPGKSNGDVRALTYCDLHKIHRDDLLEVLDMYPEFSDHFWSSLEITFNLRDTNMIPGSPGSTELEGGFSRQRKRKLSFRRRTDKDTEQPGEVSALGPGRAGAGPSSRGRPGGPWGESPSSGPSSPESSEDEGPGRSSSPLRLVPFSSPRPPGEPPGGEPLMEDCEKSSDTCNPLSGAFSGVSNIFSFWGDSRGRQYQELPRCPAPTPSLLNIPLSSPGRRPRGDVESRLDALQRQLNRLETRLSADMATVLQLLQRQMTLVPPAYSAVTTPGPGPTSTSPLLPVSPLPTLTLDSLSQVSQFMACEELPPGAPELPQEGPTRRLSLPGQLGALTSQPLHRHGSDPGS

In turn, `CC(C)(C)c1ccc(C(C)(C)C)c(NC(=O)C2CCC3C4CNC5=CC(=O)CC[C@]5(C)C4CC[C@]23C)c1` (some centres unmarked) [Compound 1] returned an IC50 in data set [1] of 0.95 µM.

For `CCCN1CC2C3CCC(C(=O)Nc4cc(C(C)(C)C)ccc4C(C)(C)C)[C@@]3(C)CCC2[C@@]2(C)CCC(=O)C=C12` (some centres unmarked) [Compound 2], the IC50 is 0.74 µM in data set [1] and 21 µM in data set [3]. The “plasma level at the end of the experiment with infected mice” value in data set [2] is “detectable levels”.

Take `C[C@]12CCC3C(CNC4=CC(=O)CC[C@@]43C)C1CCC2C(=O)NC(c1ccc(F)cc1)c1ccc(F)cc1` (some centres unmarked) [Compound 5]: the IC50 in data set [1] was 3 µM; in data set [3], 31 µM. Further, the “plasma level at the end of the experiment with infected mice” value in data set [2] was “detectable levels”. Besides, the “plasma levels over 4 weeks, alone vs in combination with rifampicin” value in data set [2] (non-infected Balb/c mice, rifampicin 1 mg/kg, weekly time points) is “no significant differences”.

One may read the IC50 as the point on the concentration scale where inhibition reaches its midpoint.
